Source: patent US12065410B2, “Crystal forms of 2-[4-[(2,3,4-trimethoxyphenyl)methyl]piperazin-1-yl]ethyl pyridine-3-carboxylate” (IMBRIA PHARMACEUTICALS, INC., priority 2020, dated 2024)
Values after ≈ are worked out from the molar mass of the structure shown. Values belong to the molecule of their own block, whether it stands above or below them.

How the values were obtained:
Type in all cases: physicochemical
[1] = Dynamic vapor sorption (DVS) with XRPD before and after
Excerpt: FIG. 8 is a dynamic vapor sorption isotherm plot. Cycle sorption is shown in red; cycle 1 desorption is shown in blue; and cycle 2 sorption is shown in green.
Pre-DVS data is shown in red; and post-DVS data is shown in blue.

[2] = Approximate solubility of starting material at RT by stepwise solvent addition; conditions: thermodynamic from solid
Procedure: Starting with Form A, polymorph screening experiments were set up under 34 conditions using methods of slurry conversion, liquid vapor diffusion, slow evaporation, and slow cooling. The approximate solubility of starting material was determined at room temperature (RT). Accurately weighed samples of approximately 2 mg weight were added into a 3-mL glass vial. Solvents were then added step wise (50/50/200/700 μL) into the vials until the solids were dissolved or a total volume of 1 mL was reached.

[3] = Slurry conversion / water activity / slurry competition at RT, solids analysed by XRPD
Procedure: Slurry conversion experiments were conducted at RT in different solvent systems. Approximately 20 mg of starting material was suspended in 0.1 mL of solvent in HPLC vials. After the suspension was stirred magnetically for 48 hours at RT, the remaining solids were isolated for XRPD analysis.

[4] = Solid-form stability on heating, vacuum dehydration and re-exposure to ambient RH (XRPD)
Procedure: CV-8972 starting material is shown in blue; CV-8972 following incubation at 90° C. for 8 hours is shown in red; and CV-8972 following incubation at 65° C. in a vacuum for 2 hours is shown in purple. To see if the small DSC endotherm at 85.3° C. corresponds to polymorphic phase transition or dehydration, XRPD was performed on Form A after storing it in an oven at 90° C. for 8 hours.
Data from starting material is shown in blue; data following incubation for 2 hours in vacuum oven are shown in red; and data from heated material that was exposed to ambient relative humidity is shown in green. To monitor Form A in its dehydrated state, it was placed in a vacuum oven at 65° C. for 2 hours followed by its XRPD analysis.

Water uptake (DVS) ([1]; 25° C. and 80% relative humidity (RH)): < 0.2%
Mass change (DVS) ([1]; beyond 80% RH, possible deliquescence): drastic increase in the mass change
XRPD of the sample after DVS ([1]; post-DVS versus pre-DVS): mostly similar to the starting material
Compound: COc1ccc(CN2CCN(CCOC(=O)c3cccnc3)CC2)c(OC)c1OC [CV-8972, 2-[4-[(2,3,4-trimethoxyphenyl)methyl]piperazin-1-yl]ethyl pyridine-3-carboxylate]

solubility ([2]; CHCl3, organic solvent or mixture, CHCI3, RT): < 1800 µg/mL
solubility ([2]; organic solvent or mixture, 1,4-Dioxane, RT): < 1700 µg/mL
solubility ([2]; organic solvent or mixture, ACN, RT): < 1500 µg/mL
solubility ([2]; organic solvent or mixture, Acetone, RT): < 2000 µg/mL
solubility ([2]; organic solvent or mixture, CPME, RT): < 1500 µg/mL
solubility ([2]; organic solvent or mixture, DCM, RT): < 2200 µg/mL
solubility ([2]; organic solvent or mixture, DMF, RT): 1800 to 6000 µg/mL (≈ 4.33 to 14.4 mM)
solubility ([2]; organic solvent or mixture, DMSO, RT): 5000 to 15000 µg/mL (≈ 12 to 36.1 mM)
solubility ([2]; organic solvent or mixture, EtOAc, RT): < 1800 µg/mL
solubility ([2]; organic solvent or mixture, EtOH, RT): < 1700 µg/mL
solubility ([2]; organic solvent or mixture, IPA, RT): < 2300 µg/mL
solubility ([2]; organic solvent or mixture, IPAc, RT): < 1700 µg/mL
solubility ([2]; organic solvent or mixture, MEK, RT): < 2000 µg/mL
solubility ([2]; organic solvent or mixture, MIBK, RT): < 2000 µg/mL
solubility ([2]; organic solvent or mixture, MeOH, RT): > 46000 µg/mL
solubility ([2]; organic solvent or mixture, NMP, RT): 6700 to 20000 µg/mL (≈ 16.1 to 48.1 mM)
solubility ([2]; organic solvent or mixture, THF, RT): < 2200 µg/mL
solubility ([2]; organic solvent or mixture, Toluene, RT): < 2300 µg/mL
solubility ([2]; organic solvent or mixture, n-Heptane, RT): < 1900 µg/mL
solubility ([2]; water, H2O, RT): > 44000 µg/mL
Hygroscopicity (DVS) ([1]; 25° C., up to 80% RH): non hygroscopic
Solid Form after slurry conversion ([3]; Acetone, stirred 48 hours at RT): Form A
Solid Form after slurry conversion ([3]; Acetone/H2O (aw = 0.2, 941/59), 48 hours at RT): Form A
Solid Form after slurry conversion ([3]; Acetone/H2O (aw = 0.4, 857/143), 48 hours at RT): Form A
Solid Form after slurry conversion ([3]; Acetone/H2O (aw = 0.6, 726/274), 48 hours at RT): Form A
Solid Form after slurry conversion ([3]; Acetone/H2O (aw = 0.8, 492/508), 48 hours at RT): Form A
Solid Form after slurry conversion ([3]; H2O, 48 hours at RT): Form A
Relative stability among polymorphs ([3]; ambient temperature and relative humidity): most stable
Solid form after vacuum oven (XRPD) ([4]; 65° C. vacuum for 2 hours): Form E
Solid form after oven storage (XRPD) ([4]; 90° C. for 8 hours): converts to Form E
Compound: COc1ccc(CN2CCN(CCOC(=O)c3cccnc3)CC2)c(OC)c1OC [Form A, 2-[4-[(2,3,4-trimethoxyphenyl)methyl]piperazin-1-yl]ethyl pyridine-3-carboxylate]

Solid form change in slurry competition between Forms D and E [3]: converted to Form A
Solid form change in water activity analysis ([3]; all conditions tested): converts to Form A
Solid form change on exposure to ambient temperature and humidity ([4]; ambient RH, rehydration): partial conversion to Form A
Compound: COc1ccc(CN2CCN(CCOC(=O)c3cccnc3)CC2)c(OC)c1OC [Form E, 2-[4-[(2,3,4-trimethoxyphenyl)methyl]piperazin-1-yl]ethyl pyridine-3-carboxylate]
